Experimental findings from US20050203135A1, “Antagonists for treatment of CD/11CD18 adhesion receptor mediated disorders” (Genentech, Inc., priority 1998, published 2005) are described below.

Assay [1] deals with HuT 78 cell adhesion to 5dICAM-Ig. The assay is described as follows: Human T-cell adhesion assay (cell attachment assay). Format: cell-based. Conditions: HuT78. As to the method: The T-cell adhesion assay is performed using a human T-lymphoid cell line HuT 78. Goat anti-HuIgG(Fc) was diluted to 2 μg/ml in PBS and 96-well plates were coated with 50 μl/well @ 37° C. for 1 h. Plates were washed with PBS and blocked for 1 h @ room temperature with 1% BSA in PBS. 5 domain ICAM-Ig was diluted to 100 ng/ml in PBS and 50 μl/well was added to the plates O/N @ 4° C. HuT 78 cells were centrifuged at 100 g and the cell pellet was treated with 5 mM EDTA for 5′ at 37° C. in a 5% CO2 incubator. Cells were washed in 0.14M NaCl, 0.02M Hepes, 0.2% Glucose and 0.1 mM MnCl2 (assay buffer) and centrifuged. The cells were resuspended in assay buffer to 3.0×10^6 c/ml. Inhibitors were diluted in assay buffer to a 2× final concentration and pre-incubated with HuT 78 cells for 30′ at room temperature. 100 μl/well of cells and inhibitors were added to the plates and incubated at room temperature for 1 h. 100 μl/well PBS was added and the plates were sealed and centrifuged inverted at 100 g for 5′. Unattached cells were flicked out of the plate and excess PBS was blotted on a paper towel. […] The enzyme reaction was stopped with 90 μl/well 50 mM Glycine/5 mM EDTA and read on a platereader at […]. HUT 78 cell adhesion to 5dICAM-Ig is measured using the p-nitrophenyl n-acetyl-β-D-glucosaminide method of Landegren, U. (1984) J. Immunol. […]

The target in assay [2] is T1, human LFA-1:ICAM-1 (Homo sapiens, UniProt P05107+P20701).
T1 construct: containing the full-length cDNAs for the aL (CD11a) and b2 (CD18) subunits; made in house
T1 sequence (P20701 26-1170): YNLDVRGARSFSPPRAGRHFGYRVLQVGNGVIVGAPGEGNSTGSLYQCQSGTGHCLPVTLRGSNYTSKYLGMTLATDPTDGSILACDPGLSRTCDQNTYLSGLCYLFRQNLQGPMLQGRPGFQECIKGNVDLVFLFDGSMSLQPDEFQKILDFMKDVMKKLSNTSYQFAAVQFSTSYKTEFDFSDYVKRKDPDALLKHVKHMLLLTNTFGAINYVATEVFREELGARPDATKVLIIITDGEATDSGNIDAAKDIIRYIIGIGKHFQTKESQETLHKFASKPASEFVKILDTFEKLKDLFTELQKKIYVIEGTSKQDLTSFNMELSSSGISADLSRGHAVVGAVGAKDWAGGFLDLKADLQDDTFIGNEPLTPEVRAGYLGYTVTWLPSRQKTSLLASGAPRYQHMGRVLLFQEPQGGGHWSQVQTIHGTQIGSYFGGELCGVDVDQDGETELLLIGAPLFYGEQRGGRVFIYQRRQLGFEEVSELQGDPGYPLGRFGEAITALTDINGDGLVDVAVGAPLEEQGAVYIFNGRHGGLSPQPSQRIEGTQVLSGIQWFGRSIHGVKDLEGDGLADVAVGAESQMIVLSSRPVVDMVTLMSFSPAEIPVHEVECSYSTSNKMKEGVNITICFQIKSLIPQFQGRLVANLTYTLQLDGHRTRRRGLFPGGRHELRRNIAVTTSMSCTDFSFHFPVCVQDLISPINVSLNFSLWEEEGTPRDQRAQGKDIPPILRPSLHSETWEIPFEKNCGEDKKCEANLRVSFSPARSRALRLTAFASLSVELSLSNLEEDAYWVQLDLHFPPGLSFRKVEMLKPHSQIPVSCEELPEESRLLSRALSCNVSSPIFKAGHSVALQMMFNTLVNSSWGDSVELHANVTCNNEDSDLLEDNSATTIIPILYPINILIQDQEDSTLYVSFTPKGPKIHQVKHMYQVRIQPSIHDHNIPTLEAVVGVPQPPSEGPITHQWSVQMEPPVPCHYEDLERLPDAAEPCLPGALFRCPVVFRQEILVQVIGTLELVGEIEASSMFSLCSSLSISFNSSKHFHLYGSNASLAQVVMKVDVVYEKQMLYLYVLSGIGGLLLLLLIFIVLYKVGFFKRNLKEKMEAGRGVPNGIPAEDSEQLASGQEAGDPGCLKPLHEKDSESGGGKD
T1 sequence (P05107 23-769): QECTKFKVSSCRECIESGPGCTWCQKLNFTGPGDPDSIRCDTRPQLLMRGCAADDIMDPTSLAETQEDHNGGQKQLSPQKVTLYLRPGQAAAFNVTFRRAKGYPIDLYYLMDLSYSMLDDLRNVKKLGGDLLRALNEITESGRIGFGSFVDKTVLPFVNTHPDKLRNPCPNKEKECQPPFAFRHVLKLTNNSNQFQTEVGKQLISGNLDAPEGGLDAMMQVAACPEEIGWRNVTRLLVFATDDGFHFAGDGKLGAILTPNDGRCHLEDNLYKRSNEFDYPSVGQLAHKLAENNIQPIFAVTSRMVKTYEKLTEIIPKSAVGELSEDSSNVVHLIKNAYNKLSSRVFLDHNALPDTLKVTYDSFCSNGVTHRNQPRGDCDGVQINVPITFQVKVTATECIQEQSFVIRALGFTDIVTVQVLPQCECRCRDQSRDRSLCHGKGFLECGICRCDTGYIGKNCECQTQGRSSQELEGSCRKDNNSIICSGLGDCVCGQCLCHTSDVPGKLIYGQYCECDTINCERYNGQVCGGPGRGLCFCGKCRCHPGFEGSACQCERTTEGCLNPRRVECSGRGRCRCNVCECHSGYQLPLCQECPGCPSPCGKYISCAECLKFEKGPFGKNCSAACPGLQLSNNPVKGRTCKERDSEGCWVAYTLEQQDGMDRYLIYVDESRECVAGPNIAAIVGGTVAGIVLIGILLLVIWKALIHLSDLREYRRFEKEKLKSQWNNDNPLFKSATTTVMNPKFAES
The assay is described as follows: human LFA-1:ICAM-1 receptor binding assay (format not stated).

With `O=C(N[C@@H](Cc1c[nH]c2ccccc12)C(=O)O)c1ccccc1Br` [2-Bromobenzoyltryptophan], the half-maximal inhibitory concentration (IC50) (commonly the concentration that inhibits the measured activity by half) in assay [1] was approximately 10 µM; in assay [2], approximately 2 µM.
